ILS, G.I. and LD50 data for 21 compounds are collected here from patent US4650799A, “Bis-dioxopiperazine derivatives, process for their preparation, antitumor agents comprising them and compositions containing them” (Zenyaku Kogyo Kabushiki Kaisha, priority 1983, dated 1987).

Data set [1] relates to P388 lymphocytic leukemia. In words: Animal Test on P388 Lymphocytic Leukemia (increase in life span). It counts as in vivo, mice [CDF1 (BALB/c×DBA/2)]. The settings on record: Mus musculus, P388, ip, i.p.; for ILS at 20 mg/kg / ILS at 60 mg/kg: 216 h; for ILS at 20 mg/kg: 20 mg/kg × 9 days; for ILS at 60 mg/kg: 60 mg/kg × 9 days; for ILS at 200 mg/kg: 200 mg/kg × 2 (1st and 5th day). The procedure: The treated group to which the compound of the present invention was administered consisted of seven mice, while the control group consisted of ten mice. Six weeks old male mice [CDF1 (BALB/c×DBA/2), 25±2 g of body weight] were employed as host animals.
Tumor cells (1.0×10^6) of P388 lymphocytic leukemia were transplanted intraperitoneally into each mouse. The treatment began one day after the transplantation and the prescribed dose of each test compound was administered intraperitoneally to the mice once a day for 9 days or on the 1st and 5th day.
Antitumor activity of the test compound was evaluated by the rate of increase in life span (I.L.S.%) which was calculated with the following formula. [formula] T: mean survival time of treated mice C: mean survival time of control mice

A further data set has as its system Lewis lung carcinoma. In words: Animal Test on Lewis Lung Carcinoma (growth inhibition, metastasis). It counts as in vivo, mice [BDF1 (C57BL/6×DBA/2)]. The note with it: orally, 8 days, tumor weight on 20th day. On the procedure: (§1) Antitumor activities of bis-dioxopiperazine derivatives which the present invention concerns were verified by the growth inhibition or the increase of life span in experimental animals with syngenic tumors such as P388 lymphocytic leukemia, Lewis lung carcinoma, B-16 melanoma and Colon Adenocarcinoma No. 38 as shown below.
(§2) The treated group to which the compound of the present invention was administered consisted of seven mice, while the control group consisted of ten mice. Six weeks old male mice [BDF1 (C57BL/6×DBA/2), 25±2 g of body weight] were employed as host animals.
Tumor cells (5×10^5) of Lewis lung carcinoma were transplanted subcutaneously in inguinal region of each mouse. The treatment began one day after the transplantation and the prescribed dose of each test compound was administered orally to the mice once a day for 8 days.
On the 20th day after the transplantation, the tumors of all the mice were excised and weighed. Antitumor activity of the test compound was evaluated by the rate of growth inhibition (G.I.%) which was calculated with the following formula. [formula] T: mean tumor weight of treated mice C: mean tumor weight of control mice

In a further data set the test system is B-16 melanoma. In words: Animal Test on B-16 Melanoma (increase in life span). It counts as in vivo, mice [BDF1 (C57BL/6×DBA/2)]. The settings on record: Mus musculus, B16, ip, 192 h, i.p., 8 days; for ILS at 20 mg/kg: 20 mg/kg daily; for ILS at 30 mg/kg: 30 mg/kg daily. On the procedure:
The treated group to which the compound of the present invention was administered consisted of seven mice, while the control group consisted of ten mice. Six weeks old male mice [BDF1 (C57BL/6×DBA/2) 25±2 g of body weight] were employed as host animals.
Tumor cells (5×10^5) of B-16 melanoma were transplanted intraperitoneally into each mouse. The treatment began one day after the transplantation and the prescribed dose of each test compound was administered intraperitoneally to the mice once a day for 8 days.
Antitumor activity of the test compound was evaluated by the rate of increase in life span (I.L.S.%) which was calculated in the same manner as used in the animal test on P388 lymphocytic leukemia.

The test system of data set [2] is Colon adenocarcinoma No. 38. In words: Animal Test on Colon Adenocarcinoma No. 38 (growth inhibition). It counts as in vivo, mice [BDF1 (C57BL/6×DBA/2)]. The note with it: 60 mg/kg daily, orally, 8 days; tumor weight on 30th day. On the procedure:
as §1, §2
Tumor cells (40 mg of fragment) of Colon adenocarcinoma No. 38 were transplanted subcutaneously in inguinal region of each mouse. The treatment began one day after the transplantation and the prescribed dose of each test compound was administered orally to the mice once a day for 8 days.
On the 30th day after the transplantation, the tumors of all the mice were excised and weighed. Antitumor activity of the test compound was evaluated by the rate of growth inhibition (G.I.%) which was calculated in the same manner as used in the animal test on Lewis lung carcinoma.

A short description of a further data set: Acute Toxicity Test. The settings on record: mouse, in vivo. On the procedure: The test group to which the compound of the present invention was administered consisted of ten mice. Five weeks old male mice (ddY, 23±2 g of body weight) were employed as test animals.

Molecules are shown by their SMILES.

`CC(=O)OCN1C(=O)CN(CCN2CC(=O)N(COC(C)=O)C(=O)C2)CC1=O` [1,2-Bis(4-acetoxymethyl-3,5-dioxopiperazin-1-yl)ethane]: the increase in lifespan (ILS) (in general, how much longer treated animals lived than controls) at 20 mg/kg was 63% in data set [1] and 39% in the data set with B-16 melanoma. In data set [1], this compound yielded an increase in lifespan (ILS) at 60 mg/kg of 118%. In data set [1], this compound displayed an increase in life span (ILS) at 200 mg/kg of 45%. The values for the G.I. (in the data set with Lewis lung carcinoma (60 mg/kg daily); in data set [2]) were 79.6% and 68.0%, respectively. Besides, the 50% lethal dose (LD50) (in general, the dose at which mortality reaches 50%) in the data set “Acute Toxicity Test” (ip, 14 days observation) is more than 1000 mg/kg; in “Acute Toxicity Test” (po), more than 2000 mg/kg.
In the case of `O=C(CCl)OCN1C(=O)CN(CCN2CC(=O)N(COC(=O)CCl)C(=O)C2)CC1=O` [1,2-Bis(4-chloroacetoxymethyl-3,5-dioxopiperazin-1-yl)ethane], in data set [1], the increase in lifespan (ILS) at 20 mg/kg is 54% and the increase in lifespan (ILS) at 200 mg/kg is 38%. In the data set with Lewis lung carcinoma (50 mg/kg daily), this compound showed a G.I. of 66.8%. The increase in life span (ILS) at 20 mg/kg with B-16 melanoma was 38%.
Turning to `COC(=O)OCN1C(=O)CN(CCN2CC(=O)N(COC(=O)OC)C(=O)C2)CC1=O` [1,2-Bis(4-methoxycarbonyloxymethyl-3,5-dioxopiperazin-1-yl)ethane], in data set [1], the ILS at 20 mg/kg stood at 75% and the increase in life span (ILS) at 200 mg/kg was 103%. The G.I. with Lewis lung carcinoma (60 mg/kg daily) is 57.7%. The compound also gave an increase in life span (ILS) at 30 mg/kg with B-16 melanoma of 78%. For the same compound, the median lethal dose (LD50) in “Acute Toxicity Test” (ip, 14 days observation) was approximately 500 mg/kg. In the data set “Acute Toxicity Test” (po), this compound had a median lethal dose (LD50) of more than 2000 mg/kg.
As for `O=C(OCN1C(=O)CN(CCN2CC(=O)N(COC(=O)c3ccccc3Cl)C(=O)C2)CC1=O)c1ccccc1Cl` [1,2-Bis(4-o-chlorobenzoyloxymethyl-3,5-dioxopiperazin-1-yl)ethane], in data set [1], the ILS at 20 mg/kg amounted to 55% and the ILS at 200 mg/kg amounted to 90%. This compound also showed a G.I. with Lewis lung carcinoma (40 mg/kg daily) of 43.7%. Also, the ILS at 20 mg/kg with B-16 melanoma was determined as 65%.
On to `O=C(Cc1ccccc1Cl)OCN1C(=O)CN(CCN2CC(=O)N(COC(=O)Cc3ccccc3Cl)C(=O)C2)CC1=O` [1,2-Bis(4-o-chlorophenylacetoxymethyl-3,5-dioxopiperazin-1-yl)ethane], for which, in data set [1], the ILS at 20 mg/kg was 65% and the increase in life span (ILS) at 200 mg/kg was found to be 83%.
The corresponding values for `COc1ccccc1C(=O)OCN1C(=O)CN(CCN2CC(=O)N(COC(=O)c3ccccc3OC)C(=O)C2)CC1=O` [1,2-Bis(4-o-methoxybenzoyloxymethyl-3,5-dioxopiperazin-1-yl)ethane] are 113% and 99%.
The corresponding values for `CC(C)(C)C(=O)OCN1C(=O)CN(CCN2CC(=O)N(COC(=O)C(C)(C)C)C(=O)C2)CC1=O` [1,2-Bis(4-pivaloyloxymethyl-3,5-dioxopiperazin-1-yl)ethane] are 53% and 66%.
In turn, `O=C(OCN1C(=O)CN(CCN2CC(=O)N(COC(=O)c3cccs3)C(=O)C2)CC1=O)c1cccs1` [1,2-Bis[4-(2-thenoyloxymethyl)-3,5-dioxopiperazin-1-yl]ethane] showed an ILS at 200 mg/kg in data set [1] of 118%.
In data set [1], `O=C(OCN1C(=O)CN(CCN2CC(=O)N(COC(=O)c3ccccc3)C(=O)C2)CC1=O)c1ccccc1` [1,2-bis(4-benzoyloxymethyl-3,5-dioxopiperazin-1-yl)ethane] yielded an ILS at 20 mg/kg of 68% and an increase in life span (ILS) at 200 mg/kg of 107%. In the data set on B-16 melanoma, this compound had an increase in lifespan (ILS) at 20 mg/kg of 87%.
In the case of `CCOC(=O)OCN1C(=O)CN(CCN2CC(=O)N(COC(=O)OCC)C(=O)C2)CC1=O` [1,2-bis(4-ethoxycarbonyloxymethyl-3,5-dioxopiperazin-1-yl)ethane], in data set [1], the ILS at 20 mg/kg was found to be 48% and the ILS at 200 mg/kg was 45%.
`O=C(OCN1C(=O)CN(CCN2CC(=O)N(COC(=O)c3ccccc3F)C(=O)C2)CC1=O)c1ccccc1F` [1,2-bis(4-o-fluorobenzoyloxymethyl-3,5-dioxopiperazin-1-yl)ethane] gave an increase in lifespan (ILS) at 200 mg/kg in data set [1] of 113%.
Compound `O=C(CSc1ccc(Br)cc1)OCN1C(=O)CN(CCN2CC(=O)N(COC(=O)CSc3ccc(Br)cc3)C(=O)C2)CC1=O` [1,2-bis(4-p-bromophenylthioacetoxymethyl-3,5-dioxopiperazin-1-yl)ethane] displayed an ILS at 200 mg/kg in data set [1] of 108%.
In data set [1], `O=C(COc1ccc(Cl)cc1)OCN1C(=O)CN(CCN2CC(=O)N(COC(=O)COc3ccc(Cl)cc3)C(=O)C2)CC1=O` [1,2-bis(4-p-chlorophenoxyacetoxymethyl-3,5-dioxopiperazin-1-yl)ethane] returned an ILS at 20 mg/kg of 40% and an increase in life span (ILS) at 200 mg/kg of 94%.
In data set [1], `O=C(CSc1ccc(F)cc1)OCN1C(=O)CN(CCN2CC(=O)N(COC(=O)CSc3ccc(F)cc3)C(=O)C2)CC1=O` [1,2-bis(4-p-fluorophenylthioacetoxymethyl-3,5-dioxopiperazin-1-yl)ethane] registered an ILS at 200 mg/kg of 120%. Also, the ILS at 40 mg/kg in the data set with B-16 melanoma (40 mg/kg daily) stood at 83%.
In data set [1], `COc1ccc(C=CC(=O)OCN2C(=O)CN(CCN3CC(=O)N(COC(=O)C=Cc4ccc(OC)cc4)C(=O)C3)CC2=O)cc1` [1,2-bis(4-p-methoxycinnamoyloxymethyl-3,5-dioxopiperazin-1-yl)ethane] had an ILS at 20 mg/kg of 78% and an increase in life span (ILS) at 200 mg/kg of 36%.
As to `O=C(Cc1ccccc1)OCN1C(=O)CN(CCN2CC(=O)N(COC(=O)Cc3ccccc3)C(=O)C2)CC1=O` [1,2-bis(4-phenylacetoxymethyl-3,5-dioxopiperazin-1-yl)ethane], in data set [1], the increase in lifespan (ILS) at 20 mg/kg is 143% and the ILS at 200 mg/kg was 204%. In the data set on B-16 melanoma, this compound returned an increase in lifespan (ILS) at 20 mg/kg of 83%.
In data set [1], `O=C(COc1cc(Cl)c(Cl)cc1Cl)OCN1C(=O)CN(CCN2CC(=O)N(COC(=O)COc3cc(Cl)c(Cl)cc3Cl)C(=O)C2)CC1=O` [1,2-bis[4-(2,4,5-trichlorophenoxyacetoxymethyl)-3,5-dioxopiperazin-1-yl]ethane] returned an increase in life span (ILS) at 20 mg/kg of 65% and an ILS at 200 mg/kg of 94%.
For the compound `O=C(OCN1C(=O)CN(CCN2CC(=O)N(COC(=O)c3ccco3)C(=O)C2)CC1=O)c1ccco1` [1,2-bis[4-(2-furoyloxymethyl)-3,5-dioxopiperazin-1-yl]ethane], in data set [1], the ILS at 200 mg/kg was more than 200%. The compound also showed an increase in lifespan (ILS) at 20 mg/kg with B-16 melanoma of 88%.
In data set [1], `CC(C)(Oc1ccc(Cl)cc1)C(=O)OCN1C(=O)CN(CCN2CC(=O)N(COC(=O)C(C)(C)Oc3ccc(Cl)cc3)C(=O)C2)CC1=O` [1,2-bis[4-(2-p-chlorophenoxy-2-methylpropionyloxymethyl)-3,5-dioxopiperazin-1-yl]ethane] returned an increase in lifespan (ILS) at 20 mg/kg of 63% and an ILS at 200 mg/kg of 114%. In the data set on B-16 melanoma, this compound displayed an ILS at 30 mg/kg of 86%.
In data set [1], `CC(=O)Oc1ccc(C=CC(=O)OCN2C(=O)CN(CCN3CC(=O)N(COC(=O)C=Cc4ccc(OC(C)=O)c(OC(C)=O)c4)C(=O)C3)CC2=O)cc1OC(C)=O` [1,2-bis[4-(3,4-diacetoxycinnamoyloxymethyl)-3,5-dioxopiperazin-1-yl]ethane] returned an ILS at 20 mg/kg of 35% and an increase in lifespan (ILS) at 200 mg/kg of 51%.
Regarding `O=C(COc1ccc(Cl)cc1Cl)OCN1C(=O)CN(CCN2CC(=O)N(COC(=O)COc3ccc(Cl)cc3Cl)C(=O)C2)CC1=O` [1.2-Bis[4-(2,4-dichlorophenoxyacetoxymethyl)-3,5-dioxopiperazin-1-yl]ethane], in data set [1], the ILS at 20 mg/kg was 49%, the increase in life span (ILS) at 60 mg/kg was 105% and the ILS at 200 mg/kg is 72%. For the same compound, the increase in lifespan (ILS) at 20 mg/kg in the data set with B-16 melanoma was 35%.
